From publication PMC10238325, “Optimization of antimicrobial peptides for the application against biocorrosive bacteria” (Applied Microbiology and Biotechnology, 2023)
Converted amounts (≈) assume the structure as drawn. Where a SMILES comes first, the peptide text is derived from it. Where no end group is shown, it is not given here.

Tests used:
[1] = tested on: Desulfovibrio indonesiensis DSM 15121; experiment: MIC assay against D. indonesiensis; assay type: cell-based; conditions: 95% growth inhibition; 96-well microdilution, n=3, OD600; modified Postgate medium with 2% NaCl, anaerobic, 48 h, 37 °C, without shaking
Protocol: (§1) The following SRB were used: Desulfovibrio vulgaris DSM 644, Desulfovibrio desulfuricans DSM 642, and Desulfovibrio indonesiensis DSM 15121. The Postgate medium (DSMZ medium 63) with a modification of 0.004 g/L FeSO4 × 7 H2O and 0.3 g/L Tri-sodium citrate (and 2% NaCl for D. indonesiensis) was flushed with nitrogen gas. Each culture was subcultured 1:100. Cultivation occurred for 48 h, 37 °C (30 °C for D. desulfuricans), without shaking. The following SOB was used: Thiomonas intermedia DSM 18155. Therefore, the Thiomonas medium (DSMZ medium 35a) was used, subcultured 1:100, and cultivated for 48 h, 30 °C, 115 rpm. Escherichia coli K12 ATCC 25404 was grown in LB Lennox medium (Carl Roth GmbH & Co.KG Karlsruhe, Germany) for 18 h, 37 °C, 115 rpm and diluted 1:1000 in Mueller-Hinton broth (Carl Roth GmbH & Co.KG Karlsruhe, Germany). Incubation during the assay took place for 24 h, 37 °C, 115 rpm.
(§2) A stock solution of 1 mg/mL in milliQ from the respective peptide and a concentration range of 1000–1.95 μg/mL was prepared by serial 2-fold dilution. 20 μL of each test substance (n=3) per well was added to a 96-well microtiter plate (polystyrene). 100 μL of each bacteria suspension (start OD600: 0.001) was added to the well with test substance, as well as 120 μL as growth control (n=35) and 120 μL medium (n=1) as sterile control to an empty well. To avoid evaporation, all microtiter plates were cultivated in air-tight containers during the incubation period. Microtiter plates for testing on SRB were prepared in the anaerobic chamber (Coy Laboratory Products Inc. Grass Lake, United States of America) and cultivated in air-tight containers including Oxoid anaerobic bag (Thermo Fisher Scientific Inc. Waltham, United States of America) to ensure anaerobic conditions. The microtiter plates were measured before and after incubation at OD600, and the growth inhibition in % was determined with the following equation:1 inhibition%=ΔOD600testsubstance/ΔOD600growthcontrole∙100%
(§3) The minimum inhibitory concentration (MIC) describes the lowest concentration where no bacterial growth could be detected. Besides the MIC100, where a complete reduction of bacterial growth could be detected, other partial inhibitions such as MIC95 or MIC50, where 95% or 50% growth inhibition occurs, can be specified.

in vitro = in vitro ADME, Desulfovibrio vulgaris; conditions: for remaining at 48 h, 1 mg/mL / remaining at 168 h, 1 mg/mL: cells or culture medium
Protocol: The analysis of the peptides was performed on a RP-HPLC (Agilent 1100, detector: diode array detector G1315A, column: Phenomenex®-Aeris™ 2.6 μm Peptide XB-C18 100 Å,150 × 2.1 mm), and ESI-LC-MS was performed (Knauer, detector: Surveyor MSQ, column: Eurospher II 100-2 C18A, 100 × 2 mm, 2 μm). The gradient was performed with a flow rate of 0.25 mL/min from 99% of mobile phase A (0.1% TFA in milliQ) over 15 min to 95% of mobile phase B (0.1% TFA in acetonitrile), kept at 95% with B for 2 min, and equilibrated at 99% with A for another 3 min. 20 μL (RP-HPLC) and 10 μL (ESI-LC-MS) peptide solution (250 μg/mL in milliQ) was injected.
For the stability tests, a bacterial suspension (7 days old) of D. vulgaris was centrifuged at 5000 rpm for 10 min. 1 mg/mL peptide solution was prepared within the supernatant and incubated at 37 °C for 7 days. The respective aliquots (t=0, 48, 72, 168 h) were mixed 1:10 with quenching solution (milliQ + 0.08% trifluoroacetic acid) and analyzed in triplicates according to the protocol described above for RP-HPLC. In addition, after incubation in the supernatant (168 h), the peptide (P3.2.) was analyzed for activity using the MIC assay.

[2] = tested on: Desulfovibrio desulfuricans DSM 642; assay type: cell-based; conditions: DSM 642, 48 h
Protocol: as §1, §2, §3

[3] = tested on: Thiomonas intermedia DSM 18155; assay type: cell-based; conditions: DSM 18155, 48 h
Protocol: as §1, §2, §3

[4] = tested on: Desulfovibrio vulgaris DSM 644; assay type: cell-based; conditions: for MIC95 D. vulgaris: 95% growth inhibition, 96-well microdilution, 2-fold series 1000–1.95 μg/mL, n=3, OD600, modified Postgate medium, anaerobic
Protocol: as §1, §2, §3

SRB = conditions: ref Greene et al. [2006]; cited from earlier work
Text: The current strategy to control microbial-influenced corrosion is based on biocides, which lead to fast resistance, requiring higher and higher concentrations to eradicate the bacteria. Alternative treatment strategies are based on additives like D-amino acids or chelates to biocides to reduce the required biocide concentration by a synergistic effect. However, these additives are not inhibitory on their own, and although a reduced biocide concentration is required, the presence of biocide is still necessary (Jia et al. [2017]; Wen et al. [2012]; Wen et al. [2009]). In this paper, a new method ...

Compound | MIC95 D. indonesiensis [1] | remaining at 48 h, 1 mg/mL (in vitro) | remaining at 168 h, 1 mg/mL (in vitro) | MIC50 D. desulfuricans [2] | MIC95 D. vulgaris ([4]; 48 h, 37 °C, without shaking) | other results
CC[C@H](C)[C@H](NC(=O)[C@H](CCCNC(=N)N)NC(=O)[C@H](CS)NC(=O)[C@H](CC(C)C)NC(=O)[C@@H](N)CCCNC(=N)N)C(=O)N[C@H](C(=O)N[C@H](C(=O)N[C@H](C(=O)N[C@@H](CCCNC(=N)N)C(=O)N[C@H](C(=O)N[C@@H](CS)C(=O)N[C@@H](CCCNC(=N)N)C(=O)O)C(C)C)[C@@H](C)CC)C(C)C)C(C)C [Bactenecin] (H-RLCRIVVIRVCR-OH; N-terminus and C-terminus assumed) | 31.25 µg/mL (≈ 21 µM) | 41% | 17% | 250 µg/mL (≈ 168 µM) | 62.5 µg/mL (≈ 42.1 µM) | stability in supernatant (in words) (in vitro): significant stability loss after only 48 h; MIC50 T. intermedia [3]: 62.5 µg/mL (≈ 42.1 µM)
CC(C)C[C@H](NC(=O)[C@H](CC(C)C)NC(=O)[C@H](CCCCN)NC(=O)[C@H](CCCCN)NC(=O)[C@H](CC(C)C)NC(=O)[C@H](Cc1c[nH]c2ccccc12)NC(=O)[C@H](CCCCN)NC(=O)[C@H](Cc1c[nH]c2ccccc12)NC(=O)[C@H](CC(C)C)NC(=O)[C@H](CCCCN)NC(=O)[C@H](CCCCN)NC(=O)CCCCCN)C(N)=O [Peptide P3.2.] (HELM PEPTIDE1{[NCCCCCC(=O)[*:2]].K.K.L.W.K.W.L.K.K.L.L.[am]}$$$$V2.0) | 125 µg/mL (≈ 78.3 µM) | 99% | 85% | 250 µg/mL (≈ 157 µM) | 15.63 µg/mL (≈ 9.79 µM) | MIC50 D. vulgaris after incubation in supernatant ([4]; DSM 644, 168 h): 31.25 µg/mL (≈ 19.6 µM); MIC95 D. vulgaris after incubation in supernatant ([4]; peptide (1 mg/mL) first incubated 168 h in D. vulgaris supernatant, then dilution series, 48 h, 37 °C, without shaking): 62.5 µg/mL (≈ 39.2 µM)
CC(C)C[C@H](NC(=O)[C@H](CC(C)C)NC(=O)[C@H](CCCCN)NC(=O)[C@H](CCCCN)NC(=O)[C@H](CC(C)C)NC(=O)[C@H](Cc1c[nH]c2ccccc12)NC(=O)[C@H](CCCCN)NC(=O)[C@H](Cc1c[nH]c2ccccc12)NC(=O)[C@H](CC(C)C)NC(=O)[C@H](CCCCN)NC(=O)[C@H](CCCCN)NC(=O)CCCCCCCN)C(N)=O [Peptide P3.3.] (HELM PEPTIDE1{[NCCCCCCCC(=O)[*:2]].K.K.L.W.K.W.L.K.K.L.L.[am]}$$$$V2.0) |  |  |  | 250 µg/mL (≈ 154 µM) |  | 
CCCCCCCCCC(=O)N[C@@H](CCCCN)C(=O)N[C@@H](CCCCN)C(=O)N[C@@H](CC(C)C)C(=O)N[C@@H](Cc1c[nH]c2ccccc12)C(=O)N[C@@H](CCCCN)C(=O)N[C@@H](Cc1c[nH]c2ccccc12)C(=O)N[C@@H](CC(C)C)C(=O)N[C@@H](CCCCN)C(=O)N[C@@H](CCCCN)C(=O)N[C@@H](CC(C)C)C(=O)N[C@@H](CC(C)C)C(N)=O [Peptide P3.4.] (HELM PEPTIDE1{[CCCCCCCCCC(=O)[*:2]].K.K.L.W.K.W.L.K.K.L.L.[am]}$$$$V2.0) | 31.25 µg/mL (≈ 19.1 µM) |  |  | 125 µg/mL (≈ 76.3 µM) | 31.25 µg/mL (≈ 19.1 µM) | 
CCCCCCCCCCCC(=O)N[C@@H](CCCCN)C(=O)N[C@@H](CCCCN)C(=O)N[C@@H](CC(C)C)C(=O)N[C@@H](Cc1c[nH]c2ccccc12)C(=O)N[C@@H](CCCCN)C(=O)N[C@@H](Cc1c[nH]c2ccccc12)C(=O)N[C@@H](CC(C)C)C(=O)N[C@@H](CCCCN)C(=O)N[C@@H](CCCCN)C(=O)N[C@@H](CC(C)C)C(=O)N[C@@H](CC(C)C)C(N)=O [Peptide P3.5.] (HELM PEPTIDE1{[CCCCCCCCCCCC(=O)[*:2]].K.K.L.W.K.W.L.K.K.L.L.[am]}$$$$V2.0) | 31.25 µg/mL (≈ 18.8 µM) |  |  | 62.5 µg/mL (≈ 37.5 µM) | 62.5 µg/mL (≈ 37.5 µM) | 
CCCCCCCCCCCCCC(=O)N[C@@H](CCCCN)C(=O)N[C@@H](CCCCN)C(=O)N[C@@H](CC(C)C)C(=O)N[C@@H](Cc1c[nH]c2ccccc12)C(=O)N[C@@H](CCCCN)C(=O)N[C@@H](Cc1c[nH]c2ccccc12)C(=O)N[C@@H](CC(C)C)C(=O)N[C@@H](CCCCN)C(=O)N[C@@H](CCCCN)C(=O)N[C@@H](CC(C)C)C(=O)N[C@@H](CC(C)C)C(N)=O [Peptide P3.6.] (HELM PEPTIDE1{[CCCCCCCCCCCCCC(=O)[*:2]].K.K.L.W.K.W.L.K.K.L.L.[am]}$$$$V2.0) | 62.5 µg/mL (≈ 36.9 µM) |  |  | 125 µg/mL (≈ 73.8 µM) | 125 µg/mL (≈ 73.8 µM) | 
O=S(=O)([O-])[O-].OC[P+](CO)(CO)CO.OC[P+](CO)(CO)CO [THPS, tetrakis(hydroxymethyl)phosphonium sulfate] |  |  |  |  |  | concentration required to inhibit SRB growth (SRB): 40 µg/mL
Ac-KKLWKWLKKLL-NH2 [Peptide P3.1.] | 125 µg/mL |  |  | 500 µg/mL | 31.25 µg/mL | 
FFGKVLKLIRKIF [DASamP1] |  | 99% |  | 500 µg/mL |  | MIC50 T. intermedia [3]: 125 µg/mL
FKKFWKWFRRF [Peptide S6L3-33] |  | 93% | 85% | 500 µg/mL |  | MIC50 T. intermedia [3]: 62.5 µg/mL
KKLLKWLKKLL [Peptide L5K5W] |  | 91% | 80% | >1000 µg/mL |  | MIC50 T. intermedia [3]: 500 µg/mL
KKLWKWLKKLL [Peptide L5K5W-W4I6] |  | 94% | 86% | >1000 µg/mL |  | 
KKLWKWLKKLL-NH2 [Peptide P2.1.] |  |  |  | 250 µg/mL |  | 
RRLWRWLRRLL [Peptide P1.1.] |  |  |  | 1000 µg/mL |  | 
